What was measured:
[1] = tested on: K-562; test: Inhibition of cells growth by colorimetric (SRB) assay, K-562; details: for GI50 / CC50: Homo sapiens, K562, 48 h; for GI50: read-out: GI50 K-562, SRB assay, 48 hours exposure; for CC50: read-out: LC50 K-562, SRB assay, 48 hours exposure; for TGI K-562: SRB assay, 48 hours exposure
Description: (§1) The finality of these assays is to interrupt the growth of a “in vitro” tumor cell culture by means a continued exhibition of the cells to the sample to be testing.
(§2) This form of the assay employs 96 well cell culture microplates of 9 mm diameter (Faircloth, 1988; Mosmann, 1983). Most of the cell lines are obtained from American Type Culture Collection (ATCC) derived from different human cancer types.
(§3) Cells are maintained in RPMI 1640 10% FBS, supplemented with 0.1 g/l penicillin and 0.1 g/l streptomycin sulphate and then incubated at 37° C., 5% CO2 and 98% humidity. For the experiments, cells were harvested from subconfluent cultures using trypsin and resuspended in fresh medium before plating.
(§4) Cells are seeded in 96 well microtiter plates, at 5×10^3 cells per well in aliquots of 195 μl medium, and they are allowed to attach to the plate surface by growing in drug free medium for 18 hours. Afterward, samples are added in aliquots of 5 μl in a ranging from 10 to 10^−8 μg/ml, dissolved in DMSO/EtOH/PBS (0.5:0.5:99). After 48 hours exposure, the antitumor effect are measured by the SRB methodology: cells are fixed by adding 50 μl of cold 50% (wt/vol) trichloroacetic acid (TCA) and incubating for 60 minutes at 4° C. Plates are washed with deionized water and dried. One hundred μl of SRB solution (0.4% wt/vol in 1% acetic acid) is added to each microtiter well and incubated for 10 minutes at room temperature. Unbound SRB is removed by washing with 1% acetic acid. Plates are air dried and bound stain is solubilized with Tris buffer. Optical densities are read on a automated spectrophotometric plate reader at a single wavelength of 490 nm.
(§5) The values for mean +/−SD of data from triplicate wells are calculated. Some parameters for cellular responses can be calculated: GI=growth inhibition, TGI=total growth inhibition (cytostatic effect) and LC=cell killing (cytotoxic effect).

[2] = tested on: A-549; test: Inhibition of cells growth by colorimetric (SRB) assay, A-549; details: for GI50 / CC50: Homo sapiens, A549, 48 h; for GI50: read-out: GI50 A-549, SRB assay, 48 hours exposure; for CC50: read-out: LC50 A-549, SRB assay, 48 hours exposure; for TGI A-549: SRB assay, 48 hours exposure
Description: as §1, §2, §3, §4, §5

[3] = tested on: SK-MEL-28; test: Inhibition of cells growth by colorimetric (SRB) assay, SK-MEL-28; details: for GI50 / CC50: Homo sapiens, SK-MEL-28, 48 h; for GI50: read-out: GI50 MEL-28, SRB assay, 48 hours exposure; for CC50: read-out: LC50 MEL-28, SRB assay, 48 hours exposure; for TGI MEL-28: SRB assay, 48 hours exposure
Description: as §1, §2, §3, §4, §5

[4] = tested on: HT-29; test: Inhibition of cells growth by colorimetric (SRB) assay, HT-29; details: for GI50 / CC50: Homo sapiens, HT-29, 48 h; for GI50: read-out: GI50 HT-29, SRB assay, 48 hours exposure; for CC50: read-out: LC50 HT-29, SRB assay, 48 hours exposure; for TGI HT-29: SRB assay, 48 hours exposure
Description: as §1, §2, §3, §4, §5

[5] = tested on: LoVo; test: Inhibition of cells growth by colorimetric (SRB) assay, LoVo; details: for GI50 / CC50: Homo sapiens, LoVo, 48 h; for GI50: read-out: GI50 LOVO, SRB assay, 48 hours exposure; for CC50: read-out: LC50 LOVO, SRB assay, 48 hours exposure; for TGI LOVO: SRB assay, 48 hours exposure
Description: as §1, §2, §3, §4, §5

[6] = tested on: LoVo-Dox; test: Inhibition of cells growth by colorimetric (SRB) assay, LoVo-Dox; details: for GI50 / CC50: Homo sapiens, 48 h; for GI50: read-out: GI50 LOVO-DOX, SRB assay, 48 hours exposure; for CC50: read-out: LC50 LOVO-DOX, SRB assay, 48 hours exposure; for TGI LOVO-DOX: SRB assay, 48 hours exposure
Description: as §1, §2, §3, §4, §5

[7] = tested on: DU-145; test: Inhibition of cells growth by colorimetric (SRB) assay, DU-145; details: for GI50 / CC50: Homo sapiens, DU-145, 48 h; for GI50: read-out: GI50 DU-145, SRB assay, 48 hours exposure; for CC50: read-out: LC50 DU-145, SRB assay, 48 hours exposure; for TGI DU-145: SRB assay, 48 hours exposure
Description: as §1, §2, §3, §4, §5

[8] = tested on: LNCaP; test: Inhibition of cells growth by colorimetric (SRB) assay, LNCaP; details: for GI50 / CC50: Homo sapiens, LNCaP, 48 h; for GI50: read-out: GI50 LN-caP, SRB assay, 48 hours exposure; for CC50: read-out: LC50 LN-caP, SRB assay, 48 hours exposure; for TGI LN-caP: SRB assay, 48 hours exposure
Description: as §1, §2, §3, §4, §5

[9] = tested on: IGROV-1; test: Inhibition of cells growth by colorimetric (SRB) assay, IGROV-1; details: for GI50 / CC50: Homo sapiens, IGROV-1, 48 h; for GI50: read-out: GI50 IGROV, SRB assay, 48 hours exposure; for CC50: read-out: LC50 IGROV, SRB assay, 48 hours exposure; for TGI IGROV: SRB assay, 48 hours exposure
Description: as §1, §2, §3, §4, §5

[10] = tested on: IGROV-ET; test: Inhibition of cells growth by colorimetric (SRB) assay, IGROV-ET; details: for GI50 / CC50: Homo sapiens, 48 h; for GI50: read-out: GI50 IGROV-ET, SRB assay, 48 hours exposure; for CC50: read-out: LC50 IGROV-ET, SRB assay, 48 hours exposure; for TGI IGROV-ET: SRB assay, 48 hours exposure
Description: as §1, §2, §3, §4, §5

[11] = tested on: SK-OV-3; test: Inhibition of cells growth by colorimetric (SRB) assay, SK-OV-3; details: for GI50 / CC50: Homo sapiens, SK-OV-3, 48 h; for GI50: read-out: GI50 SKOV-3, SRB assay, 48 hours exposure; for CC50: read-out: LC50 SKOV-3, SRB assay, 48 hours exposure; for TGI SKOV-3: SRB assay, 48 hours exposure
Description: as §1, §2, §3, §4, §5

[12] = tested on: PANC-1; test: Inhibition of cells growth by colorimetric (SRB) assay, PANC-1; details: for GI50 / CC50: Homo sapiens, PANC-1, 48 h; for GI50: read-out: GI50 PANC-1, SRB assay, 48 hours exposure; for CC50: read-out: LC50 PANC-1, SRB assay, 48 hours exposure; for TGI PANC-1: SRB assay, 48 hours exposure
Description: as §1, §2, §3, §4, §5

SMILES | GI50 [1] [µM] | CC50 [1] [µM] | TGI K-562 [1] | GI50 [2] [µM] | CC50 [2] [µM] | TGI A-549 [2] | GI50 [3] [µM] | CC50 [3] [µM] | TGI MEL-28 [3] | GI50 [4] [µM] | CC50 [4] [µM] | TGI HT-29 [4] | GI50 [5] [µM] | CC50 [5] [µM] | TGI LOVO [5] | GI50 [6] [µM] | CC50 [6] [µM] | TGI LOVO-DOX [6] | GI50 [7] [µM] | CC50 [7] [µM] | also measured
Nc1nccc2c(-c3ccncn3)c3c(OCc4ccccc4)ccnc3n12 [Compound 98] | 7.82 | 25.8 | 1.42E−05 | 15.3 | 27.1 | 2.71E−05 | 7.52 | 21.2 | 1.26E−05 | 15.6 | 27.1 | 2.71E−05 | 5.02 | 27.1 | 1.51E−05 | 5.92 | 27.1 | 1.42E−05 | 5.94 | 27.1 | TGI DU-145 [7]: 1.41E−05; GI50 [8]: 1.85 µM; CC50 [8]: 23.9 µM; TGI LN-caP [8]: 6.49E−06; GI50 [9]: 8.96 µM; CC50 [9]: 26.8 µM; TGI IGROV [9]: 1.55E−05; GI50 [10]: 7.22 µM; CC50 [10]: 20.1 µM; TGI IGROV-ET [10]: 1.21E−05; GI50 [11]: 10.6 µM; CC50 [11]: 27.1 µM; TGI SKOV-3 [11]: 2.19E−05; GI50 [12]: 5.62 µM; CC50 [12]: 19 µM; TGI PANC-1 [12]: 1.03E−05
CSc1nccc(-c2c3c(Cl)ccnc3n3c(N)nccc23)n1 [Compound 107] | 2.18 | 29.2 | 9.19E−06 | 4.52 | 29.2 | 2.70E−05 | 0.0248 | 29.2 | 5.19E−06 | 1.11 | 29.2 | 2.92E−05 | 0.173 | 29.2 | 3.79E−06 | 0.127 | 23 | 5.98E−07 | 0.653 | 29.2 | TGI DU-145 [7]: 1.44E−05; GI50 [8]: 3.38 µM; CC50 [8]: 25.3 µM; TGI LN-caP [8]: 9.25E−06; GI50 [9]: 2.95 µM; CC50 [9]: 23.7 µM; TGI IGROV [9]: 8.34E−06; GI50 [10]: 1.57 µM; CC50 [10]: 29.2 µM; TGI IGROV-ET [10]: 1.44E−05; GI50 [11]: 0.195 µM; CC50 [11]: 29.2 µM; TGI SKOV-3 [11]: 3.35E−06; GI50 [12]: 4.99 µM; CC50 [12]: 29.2 µM; TGI PANC-1 [12]: 2.92E−05
Cl.Nc1nccc2c(-c3ccncn3)c3cccnc3n12 [Compound 71] | 1.7 | 33.5 | 1.30E−05 | 1.1 | 11.2 | 2.70E−06 | 0.556 | 2.5 | 1.18E−06 | 1.1 | 33.5 | 3.35E−06 | 0.318 | 33.5 | 1.84E−06 | 0.465 | 33.5 | 1.79E−06 | 0.75 | 33.5 | TGI DU-145 [7]: 2.31E−06; GI50 [8]: 0.0502 µM; CC50 [8]: 1.82 µM; TGI LN-caP [8]: 2.15E−07; GI50 [9]: 0.797 µM; CC50 [9]: 4.15 µM; TGI IGROV [9]: 1.65E−06; GI50 [10]: 1.04 µM; CC50 [10]: 31.9 µM; TGI IGROV-ET [10]: 2.75E−06; GI50 [11]: 1.06 µM; CC50 [11]: 33.5 µM; TGI SKOV-3 [11]: 3.00E−06; GI50 [12]: 1.07 µM; CC50 [12]: 33.5 µM; TGI PANC-1 [12]: 3.78E−06
